Values quoted from earlier work in patent US20140053594A1, “THERMALLY ACTIVATED PRESSURE BOOSTER FOR HEAT PUMPING AND POWER GENERATION” (priority 2011, published 2014).

What was measured:
[1] = test system: RBT; details: intraperitoneal, rabbit
[2] = test system: rat; details: intraperitoneal
[3] = test system: rat; details: oral
[4] = test system: rat; details: intravenous
[5] = test system: rat
[6] = test system: Mouse

SMILES | IPR-RBT LD50 [1] | IPR-RAT LD50 [2] | ORL-RAT LD50 [3] | IVN-RAT LD50 [4] | Acute dermal toxicity (LD50) [5] | Acute oral toxicity (LD50) [6]
CN(C)C=O [DMF, dimethylformamide] | LD50 1000 mg kg^−1 | 1400 mg/kg | ORL-RAT LD50 2800 mg kg^−1 | 2000 mg/kg |  | 
C[S+](C)[O-] [DMSO, dimethyl sulfoxide] |  |  |  |  | 40000 mg/kg [Rat] | 7920 mg/kg [Mouse]
